Patent EP1839675A1, “NOVEL METHOD OF PROTECTING ISCHEMIC CARDIOPATHY” (Japan Science and Technology Agency, priority 2004, dated 2006)

Assays:
[1] = tested on: neonatal rat ventricular myocytes; experiment: Cell viability (MTT) after ischemic treatment and post-ischemic reperfusion in primary cultures; type: cell-based; details: for effect of dbcAMP + PMA on cell viability under co-application of CFTR channel blocker: DP plus NPPB 50 µM, glibenclamide 500 µM, gemfibrozil 2 mM or 9AC 2 mM during ischemic treatment, MTT after 96 hours reperfusion
Protocol: Primary cultures of ventricular myocytes were prepared from the hearts of neonatal rats by enzyme treatment. M199+10% FBS was used as culture medium. To reduce the number of contaminating non-myocardial cells, the medium was supplemented with 100 µM BrdU during incubation. The primary cell cultures of rat myocardial cells were subjected to ischemic treatment (removal of glucose and oxygen) and post-ischemic reperfusion according to the following procedures. The medium was replaced with a glucose-free solution, which contained 108 mM NaCl, 0.5 mM MgCl2, 5.4 mM KCl, 1mM CaCl2, and 5 mM HEPES (pH adjusted to 7.4 with NaHCO3), and were incubated at 37°C for 8 hours under anaerobic conditions, which were created by replacing air with a gas mixture of 95% Ar and 5% CO2. Immediately after incubation, the solution was replaced with a glucose-containing normal medium (M199+10% FBS), and then left in a CO2 incubator (95% air (20% O2), 5% CO2, 37°C) for 96 hours (reperfusion: re-supply of glucose/reoxygenation). Cl^- channel blocker (NPPB) was administered to the primary cell cultures of rat ventricular myocytes 1 hour prior to ischemic treatment, or at the start of ischemic treatment that lasted 8 hours. Cl- channel blocker (NPPB) was also administered over a time period of 18 hours after the start of post-ischemic reperfusion. Cell viability was assayed using MTT. To ensure accuracy in viable cell count, the assay was performed using cells obtained 96 hours after the start of post-ischemic reperfusion (Figure 1).
Primary cultures of rat ventricular myocytes were prepared and cultured in the manner described in Example 1. The procedures of Example 1 were also used to expose the primary cultures of rat ventricular myocytes to ischemic treatment (removal of glucose and oxygen) and post-ischemic reperfusion.
(§1) During ischemic treatment, the primary cultures of rat ventricular myocytes were administered with CFTR channel activator (PKA activator dbcAMP (1mM) or PKC activator PMA (100 nM), or both (DP)), or CFTR channel activator + CFTR channel blocker (NPPB (50 µM), glibenclamide (500 µM), gemfibrozil (2 mM), or 9AC (2 mM)). Following administration, ischemia was induced for 8 hours, and, after 96 hours of subsequent reperfusion, cell viability was assayed using MTT (Figure 2).
as §1, with “(milrinone (0.73 µg, 1 ml), isoproterenol (10 nM), and” for “(PKA activator dbcAMP (1mM) or PKC activator”, “nM) used together (MIP)),” for “nM), or both (DP)),”, “3).” for “2).”

rat ventricular myocytes [2] = experiment: Necrotic cell death by Hoechst 33342 / propidium iodide double staining immediately after ischemia; type: cell-based; details: Ventricular myocyte, NPPB 50 µM at start of ischemic treatment, after 8 hours of ischemia, group without reagent 44.4%, read-out: cells stained by PI
Protocol: Primary cultures of rat ventricular myocytes were prepared and cultured in the manner described in Example 1. The procedures of Example 1 were also used to expose the primary cultures of rat ventricular myocytes to ischemic treatment (removal of glucose and oxygen). […] Immediately after ischemia, cells were double stained to examine a rate of necrotic cell death, using Hoechst 33342 and propidium iodide (PI) according to a method known in the art. Hoechst 33342 stains the nucleus of all cells, and propidium iodide (PI) stains only dead cells with necrosis-induced membrane injury.

rat ventricular myocytes [3] = experiment: Nuclear DNA fragmentation (apoptosis) by Cell Death Detection ELISA, enrichment factor; type: cell-based; details: NPPB 50 µM or dbcAMP 1mM + PMA 100 nM
Protocol: Primary cultures of rat ventricular myocytes were prepared and cultured in the manner described in Example 1. The procedures of Example 1 were also used to expose the primary cultures of rat ventricular myocytes to ischemic treatment (removal of glucose and oxygen) and post-ischemic reperfusion. The primary cultures of rat ventricular myocytes were administered with CFTR channel activator (PKA activator dbcAMP (1mM) + PKC activator PMA (100 nM)), or CFTR channel blocker (NPPB (50 µM)). Administration was made at the start of ischemic treatment, which lasted 8 hours. Fragmentation of nuclear DNA in the cells was assayed immediately after ischemia or 96 hours after post-ischemic reperfusion (Figure 5). Specifically, DNA fragmentation was assayed using a method (DNA fragmentation detecting method (Cell Death Detection ELIZA kit^PLUS (Roche Diagnostics), which specifically detects […] that are characteristics of apoptotic cells. The result of measurement was obtained as enrichment factor, which was calculated according to the following formula. Enrichment factor (rate of nuclear DNA fragmentation) = absorbance of sample (dead cells)/absorbance of control (untreated cells) [formula]

ischemic cardiac muscle = details: cited from earlier work; for effect on ischemic cardiac muscle: administered after a period of ischemia; for size of infarct in ischemic cardiac muscle: pre-ischemic administration
[4] = extended period (45 minutes); cited from earlier work
[5] = cited from earlier work
[6] = dbcAMP 1mM and/or PMA 100 nM during ischemic treatment, 8 hours ischemia, 96 hours reperfusion, MTT (Figure 2)

Question: With `O=C(O)c1cc([N+](=O)[O-])ccc1NCCCc1ccccc1` [NPPB, 5-nitro-2-2(3-phenylpropylamino)-benzoate] as the compound, how does the cell viability ([1]; 50 µM NPPB administered during ischemic treatment (8 hours), MTT 96 hours after start of reperfusion) read?
Answer: significant reduction

Question: And the “effect of dbcAMP + PMA on cell viability under co-application of CFTR channel blocker” value (from here on “effect of dbcAMP + PMA on cell viability”) [1]?
Answer: completely abolished

Question: And the cytotoxicity at 50 µM (rat ventricular myocytes [2])?
Answer: 90.3%

Question: And the “level of DNA fragmentation” value (rat ventricular myocytes [3]; 96 hours after reperfusion, compared with non-administered group)?
Answer: no significant difference

Question: What about the “level of DNA fragmentation” value (rat ventricular myocytes [3]; immediately after 8 hours ischemia, compared with non-ischemic cells (score of 1)) of the same compound?
Answer: the same

Question: Which cell viability [1, 6] does the source give for `CCCCCCCCCCCCCC(=O)O[C@@H]1[C@@H](C)[C@@]2(O)[C@@H](C=C(CO)C[C@]3(O)C(=O)C(C)=C[C@@H]23)[C@@H]2C(C)(C)[C@]12OC(C)=O` [PMA, phorbol 12-myristate 13-acetate] here?
Answer: could not produce the effect

Question: For `Nc1cc(-c2ccncc2)c[nH]c1=O` [amrinone], which “effect on ischemic cardiac muscle” value (ischemic cardiac muscle) is on record?
Answer: do not exhibit any effect

Question: And the “size of infarct in ischemic cardiac muscle” value (ischemic cardiac muscle)?
Answer: effective in reducing the size of infarct

Question: For `CC(C)c1ccc(C(=O)NC(=N)N)cc1S(C)(=O)=O` [cariporide], which “effect on injury caused by post-ischemic reperfusion” value [4] is on record?
Answer: ineffective

Question: Which cell viability [1, 6] does the source give for `CCCC(=O)Nc1ncnc2c1ncn2[C@@H]1O[C@@H]2COP(=O)(O)O[C@H]2[C@H]1OC(=O)CCC` [dbcAMP, N6,2'-O-dibutyriladenosine-3':5'-cyclic monophosphate] here?
Answer: could not produce the effect

Question: Which “effect of dbcAMP + PMA on cell viability” value [1] does the source give for `Cc1ccc(C)c(OCCCC(C)(C)C(=O)O)c1` [gemfibrozil] here?
Answer: completely abolished

Question: With `COc1ccc(Cl)cc1C(=O)NCCc1ccc(S(=O)(=O)NC(=O)NC2CCCCC2)cc1` [glibenclamide] as the compound, how does the “effect of dbcAMP + PMA on cell viability” value [1] read?
Answer: completely abolished

Question: Which “effect on ischemic cardiac muscle” value (ischemic cardiac muscle) does the source give for `Cc1[nH]c(=O)c(C#N)cc1-c1ccncc1` [milrinone, 1,6-dihydro-2-methyl-6-oxo[3,4'-bipyridine]-5-carbonitrile] here?
Answer: do not exhibit any effect

Question: And the “size of infarct in ischemic cardiac muscle” value (ischemic cardiac muscle)?
Answer: effective in reducing the size of infarct

Question: What about the “milrinone in the blood circulating bound to protein” value ([5]; blood) of the same compound?
Answer: about 70%

Question: And the excretion / metabolism ([5]; in vivo)?
Answer: released into urine without being metabolized

Question: What about the half-life ([5]; in vivo) of the same compound?
Answer: 2 h
